{
  "source": "patent US7056685B1",
  "about": "“Receptor ligands and methods of modulating receptors” (Amgen Inc., priority 2002, dated 2006)",
  "key": {"GPR43": {"molecular_target": "T1, GPR43 (Homo sapiens, UniProt O15552)", "T1 sequence (O15552 1-330)": "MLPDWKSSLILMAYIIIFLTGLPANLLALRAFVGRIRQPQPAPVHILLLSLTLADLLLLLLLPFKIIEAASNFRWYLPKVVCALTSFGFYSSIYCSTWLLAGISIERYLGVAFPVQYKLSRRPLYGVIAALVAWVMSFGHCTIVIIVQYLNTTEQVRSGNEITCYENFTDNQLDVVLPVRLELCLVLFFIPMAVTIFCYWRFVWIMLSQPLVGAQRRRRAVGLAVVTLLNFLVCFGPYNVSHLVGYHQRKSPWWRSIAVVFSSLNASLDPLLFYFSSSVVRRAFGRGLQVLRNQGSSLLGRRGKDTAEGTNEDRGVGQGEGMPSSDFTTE", "experiment": "GPR43 activation by fatty acids (FIG. 2)", "assay_type": "cell-based", "conditions": "for concentration at which GPR43 is activated: FIG. 2", "from_the_text": "An activated or inhibited G-protein will in turn alter the properties of downstream effectors such as proteins, enzymes, and channels. The classic examples are the activation of cGMP phosphodiesterase by transducin in the visual system, adenylate cyclase by the stimulatory G-protein, phospholipase C by Gq and other cognate G proteins, and modulation of diverse channels by Gi and other G proteins. Downstream consequences such as generation of diacyl glycerol and IP3 by phospholipase C, and in turn, for calcium mobilization e.g., by IP3 (further discussed below) can also be examined. Thus, modulators can be evaluated for the ability to stimulate or inhibit ligand-mediated downstream effects. […] Candidate modulators may be assessed for the ability to inhibit inositol phosphate accumulation and/or calcium mobilization induced by the natural ligand, e.g., β-alanine (TGR2), a 2–3 carbon chain fatty acid (GPR43), a medium or long chain fatty acid (GPR40), succinic acid (TGR18), or a-ketoglutaric acid (TGR164).\nA battery of fatty acids were tested for the ability to activate GPR43."}, "TGR18 [1]": {"molecular_target": "T2, TGR18 (Homo sapiens, UniProt Q9BXA5)", "T2 sequence (Q9BXA5 with tags, fused parts or gaps limits assumed)": "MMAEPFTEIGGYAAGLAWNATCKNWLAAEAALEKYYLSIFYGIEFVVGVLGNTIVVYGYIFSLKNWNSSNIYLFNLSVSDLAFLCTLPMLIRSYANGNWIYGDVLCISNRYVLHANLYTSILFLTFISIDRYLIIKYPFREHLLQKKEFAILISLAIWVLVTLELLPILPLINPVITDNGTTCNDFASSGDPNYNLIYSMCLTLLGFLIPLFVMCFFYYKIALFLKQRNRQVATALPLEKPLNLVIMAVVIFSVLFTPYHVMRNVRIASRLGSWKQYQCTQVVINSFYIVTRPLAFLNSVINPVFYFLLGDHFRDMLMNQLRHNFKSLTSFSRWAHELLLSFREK", "experiment": "Inositol phosphate accumulation assay, 293 cells stably expressing TGR18", "assay_type": "cell-based", "design": "expressed in transfected cells; transient for CRE-luciferase", "conditions": "45 minutes stimulation", "method": "The ability of various ligands to increase inositol phosphate was also assessed. For this analysis, 293 cells stably expression TGR18 were incubated in inositol-free DMEM/10% dialyzed FCS/1 μCi/ml ^3H-inositol for 16 hours. Following incubation 10 mM LiCi was added to the cells for 15 minutes. Cells were then stimulated with various ligands for 45 minutes and extracted with ice-cold 20 mM formic acid. H3-inositol phosphate was collected on Dowex ion-exchange column (formate form) and radioactivity recorded by Topcount scintillation counter."}, "TGR164 [2]": {"molecular_target": "T3, TGR164 (Homo sapiens, UniProt Q96P68)", "T3 construct": "expressed in transfected cells; also 'various cell lines'", "experiment": "Aequorin assay, TGR164", "assay_type": "cell-based", "conditions": "for activation of TGR164 in Aequorin assay: FIGS. 7A and 7B"}, "TGR164 [3]": {"molecular_target": "T3, TGR164", "experiment": "Inositol phosphate accumulation assay, TGR164", "assay_type": "cell-based"}, "TGR18 [4]": {"molecular_target": "T2, TGR18", "experiment": "FLIPR intracellular calcium assay, 293 cells stably expressing TGR18", "assay_type": "cell-based", "design": "expressed in transfected cells; transient for CRE-luciferase", "conditions": "for activation of TGR18 in FLIPR assay: FIG. 6C", "method": "Mobilization of intracellular calcium in response to various ligands was also evaluated using a FLIPR assay. In this assay, 293 cells stably expressing TGR18 were seeded into 384-well plates and incubated at 37° C. overnight. The growth medium was then aspirated and replaced with 50 μl loading medium (FLIPR no-wash kit, Molecular Devices) and incubated at 37° C. for 1 hour. The cells were placed in a fluorometric imaging plate reader (FLIPR), and changes in cellular fluorescence were recorded after the addition of 25 μl of various ligands diluted in FLIPR buffer (FLIPR no-wash kit, Molecular Devices). Analogs of succinic acid that activated TGR18 include succinic acid, maleic acid, oxalacetic acid, methylmalonic acid and itaconic acid (FIG. 6C)."}, "Human TGR18": {"molecular_target": "Human TGR18 (Homo sapiens, UniProt Q9BXA5)", "conditions": "FIG. 6A", "method": "(§1) In order to examine the ability of a compound to activate TGR18, CHO cells were transiently transfected with 10 μg of the GPCR and 10 μg Aequorin reporter gene in a 150 mm dish. As a negative control, the same amount of empty vector and the Aequorin reporter were cotransfected into CHO cells. After 24 hours, cells were harvested and resuspended in Aequorin buffer (Hank's buffered saline with 20 mM Hepes, pH7.6 and 0.1% BSA) containing 1 μg/ml coelenterazine f and incubated at room temperature for a further 2 hours. The Aequorin luminescence was recorded on Microlumat after injecting 100 μl of cells into 100 μl of ligand prepared in Aequorin buffer."}, "mouse TGR18": {"molecular_target": "mouse TGR18 (Mus musculus, UniProt Q99MT6)", "sequence (Q99MT6 whole entry)": "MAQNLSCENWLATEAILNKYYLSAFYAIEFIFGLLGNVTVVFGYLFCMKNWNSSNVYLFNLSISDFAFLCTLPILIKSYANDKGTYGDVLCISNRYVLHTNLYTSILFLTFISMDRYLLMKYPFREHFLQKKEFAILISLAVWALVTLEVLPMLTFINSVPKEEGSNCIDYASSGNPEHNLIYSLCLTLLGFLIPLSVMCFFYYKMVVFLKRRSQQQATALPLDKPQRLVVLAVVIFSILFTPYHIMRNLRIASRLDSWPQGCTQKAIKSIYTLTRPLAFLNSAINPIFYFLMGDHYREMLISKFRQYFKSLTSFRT", "conditions": "FIG. 6A", "method": "as §1"}, "rat TGR18": {"molecular_target": "rat TGR18 (Rattus norvegicus, UniProt Q6IYF9)", "sequence (Q6IYF9 whole entry)": "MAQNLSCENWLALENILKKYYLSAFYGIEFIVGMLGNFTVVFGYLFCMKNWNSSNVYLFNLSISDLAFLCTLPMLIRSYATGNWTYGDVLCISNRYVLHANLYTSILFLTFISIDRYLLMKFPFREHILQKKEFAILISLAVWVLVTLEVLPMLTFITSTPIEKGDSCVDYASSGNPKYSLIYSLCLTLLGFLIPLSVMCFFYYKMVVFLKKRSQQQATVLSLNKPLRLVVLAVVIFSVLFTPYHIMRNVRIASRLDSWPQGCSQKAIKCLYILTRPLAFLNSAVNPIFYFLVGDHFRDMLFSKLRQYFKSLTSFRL", "conditions": "FIG. 6A", "method": "as §1"}, "thirty other GPCRs": {"system": "thirty other GPCRs", "conditions": "at 100 μM", "method": "as §1"}, "TGR18 [5]": {"molecular_target": "T2, TGR18", "conditions": "293 cells; 6 hours", "method": "The ability of a ligand to induce TGR18-mediated activation of a CRE-luciferase reporter was also evaluated. For this assay, 293 cells were transiently transfected with CRE-luciferase reporter, tk-renila luciferase reporter and TGR18 plasmid. Succinic acid was then added to the cell culture supernatants and incubated for a further 6 hours. The luminescence were recorded on CLIPR after cell lysis as illustrated in Dual-luciferase assay kit (Promega)."}, "TGR18 [6]": {"molecular_target": "T2, TGR18", "experiment": "TGR18 ligand activity, assay not specified (introduction)", "assay_type": "cell-based", "design": "expressed in transfected cells; transient for CRE-luciferase"}, "40 other orphan GPCRs": {"system": "40 other orphan GPCRs", "conditions": "at 10 μM"}, "TGR2 [7]": {"molecular_target": "T4, TGR2 (Homo sapiens, UniProt Q8TDS7)", "T4 sequence (Q8TDS7 whole entry)": "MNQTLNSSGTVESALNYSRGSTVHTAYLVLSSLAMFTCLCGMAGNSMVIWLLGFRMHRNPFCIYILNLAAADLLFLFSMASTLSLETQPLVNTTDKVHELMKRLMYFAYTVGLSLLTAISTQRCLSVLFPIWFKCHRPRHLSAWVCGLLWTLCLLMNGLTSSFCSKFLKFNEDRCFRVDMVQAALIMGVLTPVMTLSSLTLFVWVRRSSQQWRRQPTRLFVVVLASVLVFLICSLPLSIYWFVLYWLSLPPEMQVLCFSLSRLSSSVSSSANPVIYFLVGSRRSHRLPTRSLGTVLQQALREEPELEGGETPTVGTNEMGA"}, "mMrgD": {"molecular_target": "mMrgD (Mus musculus, UniProt Q91ZB8)", "sequence (Q91ZB8 whole entry)": "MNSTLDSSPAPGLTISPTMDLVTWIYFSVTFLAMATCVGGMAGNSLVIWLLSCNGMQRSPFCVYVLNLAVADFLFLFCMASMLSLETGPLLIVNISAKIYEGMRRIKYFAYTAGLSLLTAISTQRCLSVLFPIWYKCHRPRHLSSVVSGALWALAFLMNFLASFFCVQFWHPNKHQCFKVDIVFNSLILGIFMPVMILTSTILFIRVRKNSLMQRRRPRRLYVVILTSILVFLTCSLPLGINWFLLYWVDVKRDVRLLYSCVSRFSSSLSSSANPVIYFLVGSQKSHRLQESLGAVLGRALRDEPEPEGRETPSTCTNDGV"}, "TGR2 [8]": {"molecular_target": "T4, TGR2", "experiment": "Aequorin assay, CHO cells transiently transfected with TGR2", "assay_type": "cell-based", "design": "expressed in transfected cells; host or cells: CHO cells, transient"}, "GPR77": {"molecular_target": "T5, GPR77 (Homo sapiens, UniProt Q9P296)", "T5 construct": "expressed in transfected cells", "T5 sequence (Q9P296 whole entry)": "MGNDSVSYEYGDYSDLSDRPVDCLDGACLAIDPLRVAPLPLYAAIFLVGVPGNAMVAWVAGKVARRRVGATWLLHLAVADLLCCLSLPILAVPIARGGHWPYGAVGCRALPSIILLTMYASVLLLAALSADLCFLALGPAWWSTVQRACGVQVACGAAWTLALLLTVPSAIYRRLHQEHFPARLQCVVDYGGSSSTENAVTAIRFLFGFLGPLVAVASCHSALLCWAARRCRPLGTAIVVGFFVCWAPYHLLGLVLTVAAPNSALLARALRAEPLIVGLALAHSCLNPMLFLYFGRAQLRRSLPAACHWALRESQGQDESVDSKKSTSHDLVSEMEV", "experiment": "Competitive binding assay, membrane binding format, cells transiently transfected with GPR77", "from_the_text": "GPR77 was transiently transfected into cells."}},
  "note": "Entries after “also recorded” stand apart in the source; their conditions may differ.",
  "data": [
    {"compound": "CC(=O)O", "note": "[acetate]", "values": [
      {"measurement": "concentration at which GPR43 is activated", "setting": "GPR43", "result": "about 140 μM"}
    ]},
    {"compound": "O=C(O)/C=C/C(=O)O", "note": "[fumaric acid]", "values": [
      {"measurement": "increase of inositol phosphate levels, TGR18", "setting": "TGR18 [1]", "result": "did not"}
    ]},
    {"compound": "CCCCCCC(=O)O", "note": "[heptanoeate]", "values": [
      {"measurement": "activation of GPR43", "setting": "GPR43", "result": "do not activate"}
    ]},
    {"compound": "C=C(CC(=O)O)C(=O)O", "note": "[itaconic acid]", "values": [
      {"measurement": "activation of TGR164 in Aequorin assay", "setting": "TGR164 [2]", "result": "activated"},
      {"measurement": "inositol phosphate accumulation, TGR164", "setting": "TGR164 [3]", "result": "observed"},
      {"measurement": "activation of TGR18 in FLIPR assay", "setting": "TGR18 [4]", "result": "activated"}
    ]},
    {"compound": "O=C(O)/C=C\\C(=O)O", "note": "[maleic acid]", "values": [
      {"measurement": "activation of TGR18 in FLIPR assay", "setting": "TGR18 [4]", "result": "activated"}
    ]},
    {"compound": "CC(C(=O)O)C(=O)O", "note": "[methylmalonic acid]", "values": [
      {"measurement": "activation of TGR18 in FLIPR assay", "setting": "TGR18 [4]", "result": "activated"}
    ]},
    {"compound": "CCCCCCCC(=O)O", "note": "[octanoate]", "values": [
      {"measurement": "activation of GPR43", "setting": "GPR43", "result": "do not activate"}
    ]},
    {"compound": "O=C(O)CC(=O)C(=O)O", "note": "[oxalacetic acid]", "values": [
      {"measurement": "activation of TGR18 in FLIPR assay", "setting": "TGR18 [4]", "result": "activated"}
    ]},
    {"compound": "CCCCC(=O)O", "note": "[pentanoate]", "values": [
      {"measurement": "activation of GPR43", "setting": "GPR43", "result": "do not activate"}
    ]},
    {"compound": "CCC(=O)O", "note": "[propionate]", "values": [
      {"measurement": "concentration at which GPR43 is activated", "setting": "GPR43", "result": "about 140 μM"}
    ]},
    {"compound": "O=C(O)CCC(=O)O", "note": "[succinic acid]", "values": [
      {"measurement": "activation of human TGR18 in Aequorin assay", "setting": "Human TGR18", "result": "activated"},
      {"measurement": "activation of mouse TGR18 in Aequorin assay", "setting": "mouse TGR18", "result": "activated"},
      {"measurement": "activation of rat TGR18 in Aequorin assay", "setting": "rat TGR18", "result": "activated"},
      {"measurement": "activation of thirty other GPCRs", "setting": "thirty other GPCRs", "result": "does not activate"},
      {"measurement": "TGR18-mediated activation of CRE-luciferase reporter", "setting": "TGR18 [5]", "result": "induced"},
      {"measurement": "EC50", "setting": "TGR18 [4]; 293 cells stably expressing TGR18, FIG. 6B, read-out: EC50 of TGR18 activation in FLIPR assay", "result": "~27", "unit": "µM"},
      {"measurement": "activation of TGR18 in FLIPR assay", "setting": "TGR18 [4]", "result": "activated"},
      {"measurement": "increase of inositol phosphate levels, TGR18", "setting": "TGR18 [1]", "result": "increased inositol phosphate levels"}
    ]},
    {"compound": "O=C1CCC(=O)O1", "note": "[succinic anhydride]", "values": [
      {"measurement": "ligand for / activation of TGR18", "setting": "TGR18 [6]", "result": "ligands for TGR18"}
    ]},
    {"compound": "O=C(O)CCC(=O)C(=O)O", "note": "[α-ketoglutaric acid]", "values": [
      {"measurement": "activation of TGR164 in Aequorin assay", "setting": "TGR164 [2]", "result": "TGR164 ligand"},
      {"measurement": "activation of TGR164 in Aequorin assays in multiple cell lines", "setting": "TGR164 [2]; multiple cell lines", "result": "activates"},
      {"measurement": "inositol phosphate accumulation, TGR164", "setting": "TGR164 [3]", "result": "observed"}
    ]},
    {"compound": "NCCC(=O)O", "note": "[β-alanine]", "values": [
      {"measurement": "activation of 40 other orphan GPCRs", "setting": "40 other orphan GPCRs", "result": "did not activate"},
      {"measurement": "activation of TGR2 in inositol phosphate accumulation assay", "setting": "TGR2 [7]", "result": "activated"},
      {"measurement": "activation of mouse ortholog mMrgD in Aequorin assay", "setting": "mMrgD", "result": "specifically activated"},
      {"measurement": "EC50", "setting": "TGR2 [8]; CHO cells transiently transfected with TGR2, FIG. 1", "result": 9.1, "unit": "µM"},
      {"measurement": "activation of TGR2 (increase in intracellular calcium), library screen", "setting": "TGR2 [8]; at 10 μM", "result": "positive hit"}
    ]},
    {"compound": "ASP: Acylation stimulating protein, identical to the desarginated form of complement C3a, i.e., C3adesArg", "values": [
      {"measurement": "binding to GPR77, competition with C5a and C3a", "setting": "GPR77", "result": "shown to bind to GPR77; also recorded: competed with C5a and C3a"}
    ]}
  ]
}
